Measured values from paper PMC2832585 (Bioorganic & medicinal chemistry, 2009).
Read-outs that look alike come from different tables or passages of the source.

How the values were obtained:
[1] = system: single ventricular myocytes; details: read-out: EC50(cardio); previous data; ref [10]; cited from earlier work
[2] = system: single ventricular myocytes; assay: Cardiomyocyte contractility model; format: cell-based, rat
β1-AR = β1-AR (Rattus norvegicus, UniProt P18090); assay: β1-AR binding, [3H]CGP-12177 displacement on rat cortical membranes
human β2-AR = human β2-AR (Homo sapiens, UniProt P07550); assay: β2-AR binding, [3H]CGP-12177 displacement on HEK cell membranes; details: relative to (R,R)-1 or (R,S)-1
Sequence of human β2-AR (P07550 whole entry): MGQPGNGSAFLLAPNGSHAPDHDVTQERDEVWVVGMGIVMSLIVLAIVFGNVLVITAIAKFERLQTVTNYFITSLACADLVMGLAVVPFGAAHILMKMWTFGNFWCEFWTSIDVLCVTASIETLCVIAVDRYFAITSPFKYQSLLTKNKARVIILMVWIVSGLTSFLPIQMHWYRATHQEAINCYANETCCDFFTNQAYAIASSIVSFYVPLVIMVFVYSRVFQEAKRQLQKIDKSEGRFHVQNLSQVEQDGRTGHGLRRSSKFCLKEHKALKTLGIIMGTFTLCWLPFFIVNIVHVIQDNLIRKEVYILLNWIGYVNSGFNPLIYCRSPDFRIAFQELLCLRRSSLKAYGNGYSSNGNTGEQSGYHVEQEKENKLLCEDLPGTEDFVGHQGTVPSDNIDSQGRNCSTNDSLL

Sequence of β1-AR (P18090 whole entry): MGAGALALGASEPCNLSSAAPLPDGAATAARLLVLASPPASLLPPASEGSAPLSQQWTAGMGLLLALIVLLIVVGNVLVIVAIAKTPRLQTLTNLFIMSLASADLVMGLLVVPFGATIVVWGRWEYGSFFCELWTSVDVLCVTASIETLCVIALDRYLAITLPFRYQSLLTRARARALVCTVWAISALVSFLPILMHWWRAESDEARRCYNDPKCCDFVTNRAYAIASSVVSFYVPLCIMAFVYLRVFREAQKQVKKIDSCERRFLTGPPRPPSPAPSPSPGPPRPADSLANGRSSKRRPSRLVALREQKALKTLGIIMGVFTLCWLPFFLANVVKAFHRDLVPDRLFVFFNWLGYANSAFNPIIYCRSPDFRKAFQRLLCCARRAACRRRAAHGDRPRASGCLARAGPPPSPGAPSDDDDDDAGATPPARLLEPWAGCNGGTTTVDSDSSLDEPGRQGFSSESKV

**Q.** For C[C@H](Cc1ccc(O)cc1)NC[C@@H](O)c1cc(O)cc(O)c1 [(S,R)-1], which EC50 [1] is on record?
**A.** The EC50 was 2340 nM.

**Q.** With C[C@H](Cc1ccc(O)cc1)NC[C@H](O)c1cc(O)cc(O)c1 [(R,R)-1, (R,R)-fenoterol] as the compound, how does the EC50 ([2]; read-out: EC50cardio, cardiomyocyte contractility) read?
**A.** The EC50 was 73 ± 18 nM.

**Q.** With COc1ccc(C[C@@H](C)NC[C@@H](O)c2cc(O)cc(O)c2)cc1 [(S,R)-2] as the compound, how does the EC50 [1] read?
**A.** Its EC50 is 3160 nM.

**Q.** Which “Ki(β1-AR) of (R,R)-isomer fold larger than (R,S)-isomer” value (β1-AR) does the source give for CC[C@H](Cc1ccc(O)cc1)NC[C@H](O)c1cc(O)cc(O)c1 [(R,R)-52, (R,R-(−)-5-(1-Hydroxy-2-(1-hydroxyphenyl)butan-2-ylamino)ethyl) benzene-1,3-diol] here?
**A.** The value was 4 fold.

**Q.** And the “Ki(β1-AR) fold higher than corresponding isomer of 1” value (β1-AR; relative to (R,R)-1 or (R,S)-1)?
**A.** The value was 28 fold.

**Q.** And the “antagonism of the activity of zinterol” value ([2]; cardiomyocyte contractility model, data not shown)?
**A.** The value was “did not antagonize”.

**Q.** And the “sensitivity of cardiomyocyte contractility activity to pertussis toxin” value ([2]; initial data, data not shown, indicates activation of both GS and Gi proteins)?
**A.** The value was “sensitive to pertussis toxin”.

**Q.** And the “Ki(β2-AR) fold greater than corresponding isomer of 1” value (human β2-AR)?
**A.** The value was ~ 4 fold.

**Q.** Which “Ki(β2-AR) fold greater than corresponding isomer of 1” value (human β2-AR) does the source give for CC[C@@H](Cc1ccc(O)cc1)NC[C@H](O)c1cc(O)cc(O)c1 (racemic) [(R,S)-52] here?
**A.** Its value is 1.5 fold.
